{"source": "patent US12077555B2", "about": "“STAT degraders and uses thereof” (Kymera Therapeutics, Inc., priority 2019, dated 2024)", "key": {"[1]": {"target": "T1, STAT3 (Homo sapiens, UniProt P40763)", "T1 sequence (P40763 whole entry)": "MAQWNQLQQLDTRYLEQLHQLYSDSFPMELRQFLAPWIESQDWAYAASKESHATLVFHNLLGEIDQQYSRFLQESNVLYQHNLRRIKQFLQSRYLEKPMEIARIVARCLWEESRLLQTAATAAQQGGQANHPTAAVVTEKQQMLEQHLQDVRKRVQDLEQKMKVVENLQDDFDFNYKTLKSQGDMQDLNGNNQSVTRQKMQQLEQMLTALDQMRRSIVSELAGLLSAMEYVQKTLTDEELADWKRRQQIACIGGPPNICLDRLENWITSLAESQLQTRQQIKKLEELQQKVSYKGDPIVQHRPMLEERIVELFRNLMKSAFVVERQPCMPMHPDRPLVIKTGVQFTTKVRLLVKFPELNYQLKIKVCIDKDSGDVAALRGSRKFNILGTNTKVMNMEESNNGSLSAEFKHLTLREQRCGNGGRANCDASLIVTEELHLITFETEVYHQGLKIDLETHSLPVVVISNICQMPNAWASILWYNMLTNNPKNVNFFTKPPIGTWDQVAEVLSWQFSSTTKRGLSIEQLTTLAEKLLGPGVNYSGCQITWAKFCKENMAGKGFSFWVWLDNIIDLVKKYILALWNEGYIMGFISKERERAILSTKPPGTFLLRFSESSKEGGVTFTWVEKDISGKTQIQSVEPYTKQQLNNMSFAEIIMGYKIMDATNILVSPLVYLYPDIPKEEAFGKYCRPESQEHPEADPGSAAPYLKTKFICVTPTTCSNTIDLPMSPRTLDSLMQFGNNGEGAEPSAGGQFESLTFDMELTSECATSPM", "test": "Quantitation of STAT3 degradation in A549 cells by Western blot", "format": "cell-based", "parameters": "expressed in transfected cells; host or cells: A549", "conditions": "read-out: A549 DC50, 24 hours, tested up to 30 μM or 10 μM", "procedure": "Degradation of total cellular STAT3 protein in A549 was quantitatively measured using SDS-PAGE and Western blot analysis. A549 cells (5×10^5 cells/well, 2 mL) were seeded into 6-well plates and were incubated in the incubator under 5% CO2 overnight to reach ˜80% confluency. The next day, the culture medium was changed with 1 ml fresh media. Then, 1 mL of media containing 2× compound solution was added into the well to make the final concentration of 30 μM, 10 μM, 3 μM, 1 μM, 0.3 μM and 0 μM (DMSO). The media was thoroughly mixed and incubated for 24 hours at 37° C. under 5% CO2. Then, the culture media was removed from the assay plates and the cells were washed with ice-cold PBS twice. To prepare cell lysates, 200 ul pre-chilled RIPA lysis buffer (Boston BioProducts BP-115D) with protease/phosphatase inhibitor (Roche 05892791001/Roche 04906837001) was added directly into the well to lyse the cells for 20 minutes on ice. The cell lysates were then transferred to centrifuge tubes. Insoluble part of lysates was removed by centrifuging the lysates at 13000 rpm for 20 minutes. The supernatant was then collected and mixed with 5× loading buffer (Beyotime Bio P0015) to make the final samples for SDS-PAGE analysis. The samples were heated at 100° C. for 10 minutes and cool to room temperature before centrifuging at 13000 rpm for 20 minutes. To analyze the samples by SDS-PAGE, 10 ul samples were loaded onto SDS-PAGE gel (Novex, WG1403BOX) and the SDS-PAGE gel was run for 20 minutes at 80 V, then at 120 V for 1.5 hours. The SDS-PAGE gel was then transferred to nitrocellulose membrane using the wet-transfer method at 250 mA for 1.5 hours. The membrane was then blocked with LI-COR blocking buffer (LI-COR, 927-50000) for 1 hour and was probed with primary antibody (mouse anti-STAT3 (124H6) (CST #91395) 1:2000 or mouse anti-beta-Actin (8H10D10) (CST #3700) 1:10000) at 4° C. overnight. The membrane was then washed three times with TBST buffer and probed with secondary antibody (anti-mouse IgG (LI-COR, 926-68070), 1:5000) for 1 hour at room temperature. The membrane was then scanned on a LI-COR Odyssey instrument and was quantified using Image Studio Version 5.2. Concentration at 50% degradation (DC50) was calculated by fitting dose dependent degradation data using a sigmoidal equation using GraphPad Prism Version 8.0."}, "[2]": {"target": "T1, STAT3", "test": "STAT3 HiBiT degradation assay in transfected A549 cells", "format": "cell-based", "parameters": "expressed in transfected cells; host or cells: A549", "conditions": "A549, 24 h; read-out: STAT3 HiBiT A549 degradation 24 h: Average external-Abs DC50", "outline": "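Transfected A549 cells (~2000/well) plated 24 h, then treated 24 h at 37 °C, 5% CO2 with a 3-fold, 10-point compound dilution. HiBiT lytic luminescence read after 10 min at room temperature; remaining STAT3 normalized to negative and positive controls, four-parameter fit. DC50 binned A <0.01, B 0.01–0.1, C 0.1–1.0, D >1.0 µM.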"}}}
{"smiles": "C/C(=C\\C(=O)N[C@H]1CCc2cccc3c2N(C1=O)[C@H](C(=O)N[C@@H](CCC(N)=O)[C@@H](C)OCc1ccc(CCCCC(=O)N[C@H](C(=O)N2C[C@@H](O)C[C@H]2C(=O)NCc2ccc(-c4scnc4C)cc2)C(C)(C)C)cc1)C3)c1ccc(C(F)(F)P(=O)(OCOC(=O)C(C)(C)C)OCOC(=O)C(C)(C)C)cc1", "note": "[Compound I-2]", "values": [{"measurement": "DC50", "setting": "[1]", "value": "> 30000", "unit": "nM"}]}
{"smiles": "C/C(=C\\C(=O)N[C@H]1CCc2cccc3c2N(C1=O)[C@H](C(=O)N[C@@H](CCC(N)=O)[C@@H](C)OCc1ccc(CCCCc2cccc4c2n(C)c(=O)n4C2CCC(=O)NC2=O)cc1)C3)c1ccc(C(F)(F)P(=O)(OCOC(=O)C(C)(C)C)OCOC(=O)C(C)(C)C)cc1", "note": "(stereo partly shown) [Compound I-3]", "values": [{"measurement": "DC50", "setting": "[1]", "value": "> 30000", "unit": "nM"}]}
{"smiles": "C/C(=C\\C(=O)N[C@H]1CCc2cccc3c2N(C1=O)[C@H](C(=O)N[C@@H](CCC(N)=O)[C@@H](C)OCc1ccc(CC(=O)N[C@H](C(=O)N2C[C@H](O)C[C@H]2C(=O)NCc2ccc(-c4scnc4C)cc2)C(C)(C)C)cc1)C3)c1ccc(C(F)(F)P(=O)(OCOC(=O)C(C)(C)C)OCOC(=O)C(C)(C)C)cc1", "note": "[Compound I-4]", "values": [{"measurement": "DC50", "setting": "[1]", "value": "> 30000", "unit": "nM"}]}
{"smiles": "C/C(=C\\C(=O)N[C@H]1CCc2cccc3c2N(C1=O)[C@H](C(=O)N[C@@H](CCC(N)=O)[C@@H](C)OCc1ccc(CCCOCc2cccc4c2n(C)c(=O)n4C2CCC(=O)NC2=O)cc1)C3)c1ccc(C(F)(F)P(=O)(OCOC(=O)C(C)(C)C)OCOC(=O)C(C)(C)C)cc1", "note": "(stereo partly drawn) [Compound I-5, [([4-[(1E)-1-[[(2S,11S)-2-[[(3S,4R)-1-carbamoyl-4-[[4-(3-[[1-(2,6-dioxopiperidin-3-yl)-3-methyl-2-oxo-1,3-benzodiazol-4-yl]methoxy]propyl)phenyl]methoxy]pentan-3-yl]carbamoyl]-12-oxo-1-azatricyclo[6.4.1.0^[4,13]]trideca-4(13),5,7-trien-11-yl]carbamoyl]prop-1-en-2-yl]phenyl]difluoromethyl([(2,2-dimethylpropanoyl)oxy]methoxy)phosphoryl)oxy]methyl 2,2-dimethylpropanoate]", "values": [{"measurement": "DC50", "setting": "[1]", "value": "> 30000", "unit": "nM"}]}
{"smiles": "C/C(=C\\C(=O)N[C@H]1CCc2cccc3c2N(C1=O)[C@H](C(=O)N[C@@H](CCC(N)=O)[C@@H](C)OCc1ccc(CCCCCc2cccc4c2n(C)c(=O)n4C2CCC(=O)NC2=O)cc1)C3)c1ccc(C(F)(F)P(=O)(OCOC(=O)C(C)(C)C)OCOC(=O)C(C)(C)C)cc1", "note": "(stereo partly drawn) [Compound I-6, [([4-[(1E)-1-[[(2S,11S)-2-[[(3S,4R)-1-carbamoyl-4-[(4-[5-[1-(2,6-dioxopiperidin-3-yl)-3-methyl-2-oxo-1,3-benzodiazol-4-yl]pentyl]phenyl)methoxy]pentan-3-yl]carbamoyl]-12-oxo-1-azatricyclo[6.4.1.0^[4,13]]trideca-4(13),5,7-trien-11-yl]carbamoyl]prop-1-en-2-yl]phenyl]difluoromethyl([(2,2-dimethylpropanoyl)oxy]methoxy)phosphoryl)oxy]methyl 2,2-dimethylpropanoate]", "values": [{"measurement": "DC50", "setting": "[1]", "value": "> 30000", "unit": "nM"}]}
{"smiles": "C/C(=C\\C(=O)N[C@H]1CCc2cccc3c2N(C1=O)[C@H](C(=O)N[C@@H](CCC(N)=O)[C@@H](C)OCc1ccc(CCCC(=O)N[C@H](C(=O)N2C[C@H](O)C[C@H]2C(=O)NCc2ccc(-c4scnc4C)cc2)C(C)(C)C)cc1)C3)c1ccc(C(F)(F)P(=O)(OCOC(=O)C(C)(C)C)OCOC(=O)C(C)(C)C)cc1", "note": "[Compound I-7]", "values": [{"measurement": "DC50", "setting": "[1]", "value": "< 30000", "unit": "nM"}]}
{"smiles": "C/C(=C\\C(=O)N[C@H]1CCc2cccc3c2N(C1=O)[C@H](C(=O)N[C@@H](CCC(N)=O)[C@@H](C)OCc1ccc(CCCCC(=O)N[C@H](C(=O)N2C[C@H](O)C[C@H]2C(=O)NCc2ccc(-c4scnc4C)cc2)C(C)(C)C)cc1)C3)c1ccc(C(F)(F)P(=O)(OCOC(=O)C(C)(C)C)OCOC(=O)C(C)(C)C)cc1", "note": "[Compound I-8, (2S,4R)-1-[(2S)-2-[5-[4-([[(2R,3S)-3-[[(2S,11S)-11-amino-12-oxo-1-azatricyclo[6.4.1.0^[4,13]]trideca-4(13),5,7-trien-2-l]formamido]-5-carbamoylpentan-2-yl]oxy]methyl)phenyl]pentanamido]-3,3-dimethylbutanoyl]-4-hydroxy-N-[[4-(4-methyl-1,3-thiazol-5-yl)phenyl]methyl]pyrrolidine-2-carboxamide]", "values": [{"measurement": "DC50", "setting": "[1]", "value": "< 30000", "unit": "nM"}]}
{"smiles": "Cc1ncsc1-c1ccc(C2(NC(=O)[C@@H]3C[C@@H](O)CN3C(=O)[C@@H](NC(=O)CCCc3cccc(OC[C@H](CCC(N)=O)NC(=O)[C@@H]4Cc5cccc6c5N4C(=O)[C@@H](NC(=O)c4cc5cc(C(=O)P(=O)(O)O)ccc5[nH]4)CC6)c3Cl)C(C)(C)C)CC2)cc1", "note": "[Compound I-283]", "values": [{"measurement": "DC50", "setting": "[2]", "value": "10 to 100", "unit": "nM"}]}
{"smiles": "Cn1c(=O)n(C2CCC(=O)NC2=O)c2ccc(CCCCCCC(=O)N3CC[C@H]4CC[C@@H](C(=O)N[C@@H](CCC(N)=O)C(=O)NCc5ccc(S(C)(=O)=O)cc5)N4C(=O)[C@@H](NC(=O)c4cc5cc(C(=O)P(=O)(O)O)ccc5[nH]4)C3)cc21", "note": "(stereo partly drawn) [Compound I-288, 2-[[(5S,8S,10aR)-8-[[(1S)-3-carbamoyl-1-[[(4-methanesulfonylphenyl)methyl]carbamoyl]propyl]carbamoyl]-3-[7-[1-(2,6-dioxopiperidin-3-yl)-3-methyl-2-oxo-1,3-benzodiazol-5-yl]heptanoyl]-6-oxo-octahydropyrrolo[1,2-a][1,5]diazocin-5-yl]carbamoyl]-1H-indole-5-carbonylphosphonic acid]", "values": [{"measurement": "DC50", "setting": "[2]", "value": "10 to 100", "unit": "nM"}]}
{"smiles": "CC(=O)N1CC[C@H]2CC[C@@H](C(=O)N[C@@H](CCC(=O)O)COc3cc(F)cc(CCCC(=O)N[C@H](C(=O)N4C[C@H](O)C[C@H]4C(=O)N[C@@H](C)c4ccc(-c5scnc5C)cc4)C(C)(C)C)c3Cl)N2C(=O)[C@@H](NC(=O)c2cc3cc(C(=O)P(=O)(O)O)ccc3[nH]2)C1", "note": "[Compound I-289]", "values": [{"measurement": "DC50", "setting": "[2]", "value": "< 10", "unit": "nM"}]}
{"smiles": "CC(=O)N1CC[C@H]2CC[C@@H](C(=O)N[C@@H](CCC(=O)O)COc3cc(C)cc(CCCC(=O)N[C@H](C(=O)N4C[C@H](O)C[C@H]4C(=O)N[C@@H](C)c4ccc(-c5scnc5C)cc4)C(C)(C)C)c3F)N2C(=O)[C@@H](NC(=O)c2cc3cc(C(=O)P(=O)(O)O)ccc3[nH]2)C1", "note": "[Compound I-290]", "values": [{"measurement": "DC50", "setting": "[2]", "value": "< 10", "unit": "nM"}]}
{"smiles": "Cn1c(=O)n(C2CCC(=O)NC2=O)c2ccc(CC[C@H]3CC[C@@H](C(=O)N4CC[C@H]5CC[C@@H](C(=O)N[C@@H](CCC(N)=O)C(=O)NCc6ccc(S(C)(=O)=O)cc6)N5C(=O)[C@@H](NC(=O)c5cc6cc(C(=O)P(=O)(O)O)ccc6[nH]5)C4)CC3)cc21", "note": "(stereo partly drawn) [Compound I-294, (2-(((5S,8S,10aR)-8-(((S)-5-amino-1-((4-(methylsulfonyl)benzyl)amino)-1,5-dioxopentan-2-yl)carbamoyl)-3-((1r,4R)-4-(2-(1-(2,6-dioxopiperidin-3-yl)-3-methyl-2-oxo-2,3-dihydro-1H-benzo[d]imidazol-5-yl)ethyl)cyclohexane-1-carbonyl)-6-oxodecahydropyrrolo[1,2-a][1,5]diazocin-5-yl)carbamoyl)-1H-indole-5-carbonyl)phosphonic acid]", "values": [{"measurement": "DC50", "setting": "[2]", "value": "< 10", "unit": "nM"}]}
{"smiles": "CC(C)c1ccc(CNC(=O)[C@H](CCC(N)=O)NC(=O)[C@@H]2CC[C@@H]3CCN(C(=O)[C@H]4CC[C@@H](CCc5ccc6c(c5)n(C)c(=O)n6C5CCC(=O)NC5=O)CC4)C[C@H](NC(=O)c4cc5cc(C(=O)P(=O)(O)O)ccc5[nH]4)C(=O)N32)cc1", "note": "(stereo partly drawn) [Compound I-295, (2-(((5S,8S,10aR)-8-(((S)-5-amino-1-((4-isopropylbenzyl)amino)-1,5-dioxopentan-2-yl)carbamoyl)-3-((1r,4R)-4-(2-(1-(2,6-dioxopiperidin-3-yl)-3-methyl-2-oxo-2,3-dihydro-1H-benzo[d]imidazol-5-yl)ethyl)cyclohexane-1-carbonyl)-6-oxodecahydropyrrolo[1,2-a][1,5]diazocin-5-yl)carbamoyl)-1H-indole-5-carbonyl)phosphonic acid]", "values": [{"measurement": "DC50", "setting": "[2]", "value": "< 10", "unit": "nM"}]}
